Measurements: PubChem BioAssay (NCI)
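Each compound was tested at five concentrations against cells in 96-well plates for 48 hours. GI50: concentration for 50% inhibition of growth. The concentration for full growth arrest is given as TGI.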

Tests used:
Test in all cases: NCI anticancer screen, dose series, 48 h
MCF7 breast = test system: MCF7 breast
UACC-62 melanoma = test system: UACC-62 melanoma
RPMI-8226 leukemia = test system: RPMI-8226 leukemia
KM12 colon = test system: KM12 colon
HCT-116 colon = test system: HCT-116 colon
A549 NSCLC = test system: A549 NSCLC
OVCAR-4 ovarian = test system: OVCAR-4 ovarian
SR leukemia = test system: SR leukemia
SK-OV-3 ovarian = test system: SK-OV-3 ovarian
UACC-257 melanoma = test system: UACC-257 melanoma
U251 CNS = test system: U251 CNS
MOLT-4 leukemia = test system: MOLT-4 leukemia
OVCAR-3 ovarian = test system: OVCAR-3 ovarian
HT29 colon = test system: HT29 colon
HOP-62 NSCLC = test system: HOP-62 NSCLC
SK-MEL-2 melanoma = test system: SK-MEL-2 melanoma
SN12C renal = test system: SN12C renal
NCI-H522 lung = test system: NCI-H522 lung
SF-295 CNS = test system: SF-295 CNS
MDA-MB-435 = test system: MDA-MB-435
SNB-19 CNS = test system: SNB-19 CNS
NCI-H226 lung = test system: NCI-H226 lung
CAKI-1 renal = test system: CAKI-1 renal
SNB-75 CNS = test system: SNB-75 CNS
PC-3 prostate = test system: PC-3 prostate
K-562 leukemia = test system: K-562 leukemia
HCT-15 colon = test system: HCT-15 colon
ACHN renal = test system: ACHN renal
TK-10 renal = test system: TK-10 renal

`CC(=O)Nc1cc(F)cc(-c2ccc3[nH]cc(-c4ccccc4)c3n2)c1` was tested, and the GI50 (MCF7 breast) was 2900 nM, the TGI (MCF7 breast) was 12.3 µM and the GI50 (UACC-62 melanoma) was 3.34 µM. It also gave a TGI (UACC-62 melanoma) of 11.9 µM, a GI50 (RPMI-8226 leukemia) of 3.08 µM and a TGI (RPMI-8226 leukemia) of 19.2 µM. It also gave a GI50 (KM12 colon) of 1870 nM, a TGI (KM12 colon) of 3.56 µM and a GI50 (HCT-116 colon) of 3.33 µM. For the same compound, the TGI (HCT-116 colon) was 12 µM, the GI50 (A549 NSCLC) was 3.6 µM and the TGI (A549 NSCLC) was 16.7 µM. It also gave a GI50 (OVCAR-4 ovarian) of 5.44 µM, a TGI (OVCAR-4 ovarian) of 18.6 µM and a GI50 (SR leukemia) of 2750 nM. It also gave a TGI (SR leukemia) of 8.4 µM, a GI50 (SK-OV-3 ovarian) of 6.84 µM and a TGI (SK-OV-3 ovarian) of 21.3 µM. The GI50 (UACC-257 melanoma) was 2320 nM, the TGI (UACC-257 melanoma) was 5.96 µM and the GI50 (U251 CNS) was 3.73 µM. It also gave a TGI (U251 CNS) of 16.1 µM, a GI50 (MOLT-4 leukemia) of 2260 nM and a TGI (MOLT-4 leukemia) of 10.4 µM. It also gave a GI50 (OVCAR-3 ovarian) of 5.08 µM, a TGI (OVCAR-3 ovarian) of 17.8 µM and a GI50 (HT29 colon) of 2210 nM. It also gave a TGI (HT29 colon) of 5.15 µM, a GI50 (HOP-62 NSCLC) of 4.2 µM and a TGI (HOP-62 NSCLC) of 17.4 µM. It also gave a GI50 (SK-MEL-2 melanoma) of 2460 nM, a TGI (SK-MEL-2 melanoma) of 6.8 µM and a GI50 (SN12C renal) of 6.7 µM. The TGI (SN12C renal) was 21.9 µM, the GI50 (NCI-H522 lung) was 1830 nM and the TGI (NCI-H522 lung) was 4.11 µM. The GI50 (SF-295 CNS) was 2100 nM, the TGI (SF-295 CNS) was 5.16 µM and the GI50 (MDA-MB-435) was 4.05 µM. For the same compound, the TGI (MDA-MB-435) was 15.5 µM, the GI50 (SNB-19 CNS) was 3.9 µM and the TGI (SNB-19 CNS) was 13.9 µM. For the same compound, the GI50 (NCI-H226 lung) was 6.31 µM, the TGI (NCI-H226 lung) was 23 µM and the GI50 (CAKI-1 renal) was 3.32 µM. The TGI (CAKI-1 renal) was 12.2 µM, the GI50 (SNB-75 CNS) was 4.93 µM and the TGI (SNB-75 CNS) was 18.1 µM. The GI50 (PC-3 prostate) was 3.33 µM, the TGI (PC-3 prostate) was 16 µM and the GI50 (K-562 leukemia) was 2790 nM. The TGI (K-562 leukemia) was 9.11 µM, the GI50 (HCT-15 colon) was 2080 nM and the TGI (HCT-15 colon) was 5.05 µM. It also gave a GI50 (ACHN renal) of 4.08 µM, a TGI (ACHN renal) of 14.3 µM and a GI50 (TK-10 renal) of 6 µM. For the same compound, the TGI (TK-10 renal) was 18.3 µM.
